Test results reported in paper PMC12475274, “Harnessing indole scaffolds to identify small-molecule IRE1α inhibitors modulating XBP1 mRNA splicing” (Nature Communications, 2025).
“And” between values parts separate entries of the source, which are not always exact repeats. Equal values may be shown once.

Experiments:
phosphorylated IRE1α = target: T1, phosphorylated IRE1α (Homo sapiens, UniProt O75460); test: Microscale thermophoresis (MST), p-IRE1α; format: binding
T1 construct: Human IRE1α kinase and RNase domain (residues 547–977) was subcloned into pLIB plasmid; His tag (with TEV cleavage site) (N, cleaved yes); made in house; host or cells: Sf9 insect cells, baculovirus (Bac-to-Bac)
T1 sequence (O75460 547-977): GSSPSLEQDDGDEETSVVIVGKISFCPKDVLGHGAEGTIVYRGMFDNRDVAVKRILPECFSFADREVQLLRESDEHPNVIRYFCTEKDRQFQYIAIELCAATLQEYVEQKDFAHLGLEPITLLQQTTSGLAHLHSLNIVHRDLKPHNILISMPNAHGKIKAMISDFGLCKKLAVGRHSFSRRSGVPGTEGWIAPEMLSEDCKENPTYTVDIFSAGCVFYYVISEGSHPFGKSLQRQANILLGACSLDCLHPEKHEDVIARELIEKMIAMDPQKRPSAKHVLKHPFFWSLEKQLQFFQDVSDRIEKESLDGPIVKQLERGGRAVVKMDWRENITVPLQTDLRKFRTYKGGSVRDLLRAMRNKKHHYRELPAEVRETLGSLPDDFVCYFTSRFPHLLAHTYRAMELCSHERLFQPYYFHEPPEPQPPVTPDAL
Procedure: Dephosphorylated IRE1α protein and phosphorylated IRE1α protein were labeled and purified using Protein Labeling Kit RED-NHS 2nd Generation (NanoTemper, MO-L011), following the manufacturer’s protocol. The labeling buffer contained 50 mM HEPES, pH 7.5, 200 mM NaCl, 2% glycerol, 0.5 mM TCEP, 0.05% tween20. MST experiments were performed using the Monolith Nt.115 instrument (NanoTemper), and binding experiments were conducted according to the instrument’s instructions. Compounds were serially diluted 2-fold and incubated with labeled IRE1α protein at a final concentration of 20 nM. The highest compound concentration measured was 250 μM with a final DMSO concentration of 2.5%. Measurements were carried out using the red detector with 60% excitation power. Data were analyzed using the manufacturer’s software, and results from three individual measurements were merged for analysis.

IRE1β (ERN2) = IRE1β (ERN2) (Homo sapiens, UniProt Q76MJ5); test: LanthaScreen Eu kinase binding assay, IRE1β
IRE1β (ERN2), sequence (Q76MJ5 35-926): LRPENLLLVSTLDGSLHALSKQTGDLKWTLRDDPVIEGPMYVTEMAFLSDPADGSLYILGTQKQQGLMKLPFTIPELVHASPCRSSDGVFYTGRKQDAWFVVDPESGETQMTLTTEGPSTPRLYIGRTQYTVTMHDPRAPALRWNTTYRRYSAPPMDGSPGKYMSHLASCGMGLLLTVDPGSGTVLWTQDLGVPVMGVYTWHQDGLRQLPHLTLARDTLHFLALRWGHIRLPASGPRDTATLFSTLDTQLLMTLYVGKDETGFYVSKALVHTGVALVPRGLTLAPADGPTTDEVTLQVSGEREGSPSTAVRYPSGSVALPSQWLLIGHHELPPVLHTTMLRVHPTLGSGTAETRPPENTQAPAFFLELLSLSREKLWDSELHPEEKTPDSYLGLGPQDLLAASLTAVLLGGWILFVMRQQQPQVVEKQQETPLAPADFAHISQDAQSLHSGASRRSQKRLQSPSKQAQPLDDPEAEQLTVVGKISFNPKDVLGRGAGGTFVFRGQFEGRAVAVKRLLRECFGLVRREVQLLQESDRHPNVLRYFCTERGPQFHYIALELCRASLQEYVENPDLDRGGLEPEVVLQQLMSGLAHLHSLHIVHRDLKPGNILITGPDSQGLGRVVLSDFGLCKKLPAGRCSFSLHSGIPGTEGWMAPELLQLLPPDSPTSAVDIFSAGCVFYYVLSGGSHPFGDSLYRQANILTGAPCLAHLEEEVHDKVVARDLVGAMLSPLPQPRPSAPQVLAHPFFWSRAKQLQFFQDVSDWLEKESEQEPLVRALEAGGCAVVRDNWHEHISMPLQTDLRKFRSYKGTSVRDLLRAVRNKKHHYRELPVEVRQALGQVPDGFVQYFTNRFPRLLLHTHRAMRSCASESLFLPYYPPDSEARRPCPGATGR
Procedure: LanthaScreen^TM Eu kinase binding assays were conducted by SelectScreen Kinase Profiling Services (Thermo Fisher) using Alexa Fluor conjugated kinase tracer, tagged kinase protein, and Eu-labeled anti-tag antibody. The binding of the tracer to the kinase will form the tracer-kinase complex, resulting in a high FRET signal with the Eu-labeled anti-tag antibody. Displacement of the tracer by a kinase inhibitor led to a decreased FRET signal. […] Buffer A containing 50 mM HEPES pH 7.5, 0.01% BRIJ-35, 10 mM MgCl2, and 1 mM EGTA was used.
(§1) Kinase profiling was conducted by the SelectScreen Kinase Profiling Services (Thermo Fisher), using Z′-LYTE, Adapta, or LanthaScreen Eu Kinase Binding Assay for different kinases. The kinome phylogenetic tree was generated using the KinMap web portal.

GSG2 (Haspin) = GSG2 (Haspin) (Homo sapiens, UniProt Q8TF76); test: Kinase profiling (SelectScreen), Adapta; format: biochemical
Procedure: as §1

ACVR1 (ALK2) = ACVR1 (ALK2) (Homo sapiens, UniProt Q04771); test: Kinase profiling (SelectScreen), LanthaScreen Binding; details: IA107 at 5 μM
Procedure: as §1

BMPR1B (ALK6) = BMPR1B (ALK6) (Homo sapiens, UniProt O00238); test: as above; details: IA107 at 5 μM
Procedure: as §1

BMPR2 = BMPR2 (Homo sapiens, UniProt Q13873); test: as above; details: IA107 at 5 μM
BMPR2, sequence (Q13873 27-1038): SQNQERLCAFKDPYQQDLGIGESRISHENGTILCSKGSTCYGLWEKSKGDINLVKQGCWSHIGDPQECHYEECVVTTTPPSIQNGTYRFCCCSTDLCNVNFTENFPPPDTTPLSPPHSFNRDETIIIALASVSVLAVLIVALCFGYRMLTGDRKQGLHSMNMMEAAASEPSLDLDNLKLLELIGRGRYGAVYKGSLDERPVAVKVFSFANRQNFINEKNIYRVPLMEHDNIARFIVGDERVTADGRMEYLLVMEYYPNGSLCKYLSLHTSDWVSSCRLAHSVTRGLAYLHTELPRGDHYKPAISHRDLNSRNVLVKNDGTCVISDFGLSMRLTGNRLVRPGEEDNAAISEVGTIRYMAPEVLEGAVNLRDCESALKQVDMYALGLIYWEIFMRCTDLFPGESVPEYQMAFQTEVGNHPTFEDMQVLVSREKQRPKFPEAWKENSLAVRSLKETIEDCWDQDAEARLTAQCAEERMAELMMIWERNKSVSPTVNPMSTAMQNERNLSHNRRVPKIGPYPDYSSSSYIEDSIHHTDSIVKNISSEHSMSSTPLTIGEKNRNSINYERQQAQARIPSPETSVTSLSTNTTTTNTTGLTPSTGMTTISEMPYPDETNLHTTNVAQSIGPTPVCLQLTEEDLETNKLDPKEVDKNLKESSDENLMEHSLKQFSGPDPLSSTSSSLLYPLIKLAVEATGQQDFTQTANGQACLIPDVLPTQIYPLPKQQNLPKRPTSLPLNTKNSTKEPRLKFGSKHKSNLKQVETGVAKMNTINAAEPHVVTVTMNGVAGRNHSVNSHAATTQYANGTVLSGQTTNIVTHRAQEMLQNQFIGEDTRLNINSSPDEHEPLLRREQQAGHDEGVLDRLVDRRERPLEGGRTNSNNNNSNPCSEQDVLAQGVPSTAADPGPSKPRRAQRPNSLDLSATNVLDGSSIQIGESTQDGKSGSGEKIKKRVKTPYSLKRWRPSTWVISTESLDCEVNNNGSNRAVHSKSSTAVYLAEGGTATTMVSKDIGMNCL
Procedure: as §1

BRSK2 = BRSK2 (Homo sapiens, UniProt Q8IWQ3); test: as above; details: IA107 at 5 μM
Procedure: as §1

CAMKK2 (CaMKK beta) = CAMKK2 (CaMKK beta) (Homo sapiens, UniProt Q96RR4); test: as above; details: IA107 at 5 μM
Procedure: as §1

CASK = CASK (Homo sapiens, UniProt O14936); test: as above; details: IA107 at 5 μM
CASK, sequence (O14936 whole entry): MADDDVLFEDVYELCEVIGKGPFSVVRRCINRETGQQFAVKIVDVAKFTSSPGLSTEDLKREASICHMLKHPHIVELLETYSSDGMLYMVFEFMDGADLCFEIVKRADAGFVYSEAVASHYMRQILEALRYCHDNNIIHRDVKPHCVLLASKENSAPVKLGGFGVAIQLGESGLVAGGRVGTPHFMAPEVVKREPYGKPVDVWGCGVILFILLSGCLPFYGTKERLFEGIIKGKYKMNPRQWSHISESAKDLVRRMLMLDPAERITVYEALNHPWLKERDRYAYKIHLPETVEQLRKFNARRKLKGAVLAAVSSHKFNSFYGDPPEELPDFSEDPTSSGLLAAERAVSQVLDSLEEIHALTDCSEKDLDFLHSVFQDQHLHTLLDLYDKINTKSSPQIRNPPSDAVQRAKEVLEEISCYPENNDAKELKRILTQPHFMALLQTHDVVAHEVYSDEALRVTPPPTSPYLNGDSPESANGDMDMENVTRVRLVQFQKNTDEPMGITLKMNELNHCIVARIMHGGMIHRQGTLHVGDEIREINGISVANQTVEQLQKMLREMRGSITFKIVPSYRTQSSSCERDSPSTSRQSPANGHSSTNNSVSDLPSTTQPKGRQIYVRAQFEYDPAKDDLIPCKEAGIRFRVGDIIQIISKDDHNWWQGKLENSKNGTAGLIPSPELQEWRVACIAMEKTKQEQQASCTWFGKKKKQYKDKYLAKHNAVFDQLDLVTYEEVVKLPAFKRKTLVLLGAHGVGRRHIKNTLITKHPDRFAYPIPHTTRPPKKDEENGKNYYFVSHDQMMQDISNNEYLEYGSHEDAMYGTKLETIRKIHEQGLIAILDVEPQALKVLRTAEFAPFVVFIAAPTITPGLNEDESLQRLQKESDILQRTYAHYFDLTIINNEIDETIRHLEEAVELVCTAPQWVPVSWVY
Procedure: as §1

CDC7/DBF4 = CDC7/DBF4 (Homo sapiens, UniProt O00311); test: as above; details: IA107 at 5 μM
Procedure: as §1

CDK8/cyclin C = CDK8/cyclin C (Homo sapiens, UniProt P49336); test: as above; details: IA107 at 5 μM
Procedure: as §1

DDR2 = DDR2 (Homo sapiens, UniProt Q16832); test: as above; details: IA107 at 5 μM
Procedure: as §1

ICK = ICK (Homo sapiens, UniProt Q9UPZ9); test: as above; details: IA107 at 5 μM
Procedure: as §1

LIMK1 = LIMK1 (Homo sapiens, UniProt P53667); test: as above; details: IA107 at 5 μM
Procedure: as §1

MAP3K11 (MLK3) = MAP3K11 (MLK3) (Homo sapiens, UniProt Q16584); test: as above; details: IA107 at 5 μM
Procedure: as §1

MAP3K14 (NIK) = MAP3K14 (NIK) (Homo sapiens, UniProt Q99558); test: as above; details: IA107 at 5 μM
Procedure: as §1

MAP4K1 (HPK1) = MAP4K1 (HPK1) (Homo sapiens, UniProt Q92918); test: as above; details: IA107 at 5 μM
Procedure: as §1

MAPK15 (ERK7) = MAPK15 (ERK7) (Homo sapiens, UniProt Q8TD08); test: as above; details: IA107 at 5 μM
MAPK15 (ERK7), sequence (Q8TD08 whole entry): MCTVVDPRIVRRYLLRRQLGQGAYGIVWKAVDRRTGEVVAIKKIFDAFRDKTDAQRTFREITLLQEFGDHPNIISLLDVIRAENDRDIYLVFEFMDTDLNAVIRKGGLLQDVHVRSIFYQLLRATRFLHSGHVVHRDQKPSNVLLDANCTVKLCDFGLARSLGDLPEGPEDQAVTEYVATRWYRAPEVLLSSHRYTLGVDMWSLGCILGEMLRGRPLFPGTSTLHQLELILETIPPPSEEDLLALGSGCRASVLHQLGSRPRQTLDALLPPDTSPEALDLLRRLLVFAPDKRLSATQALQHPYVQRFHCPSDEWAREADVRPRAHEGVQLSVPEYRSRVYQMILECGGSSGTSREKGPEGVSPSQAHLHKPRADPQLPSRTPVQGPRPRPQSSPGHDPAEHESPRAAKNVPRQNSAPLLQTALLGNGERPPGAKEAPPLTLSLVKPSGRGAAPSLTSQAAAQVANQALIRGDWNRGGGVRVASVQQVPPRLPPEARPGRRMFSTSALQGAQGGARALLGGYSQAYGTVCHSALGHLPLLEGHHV
Procedure: as §1

MYO3B (MYO3 beta) = MYO3B (MYO3 beta) (Homo sapiens, UniProt Q8WXR4); test: as above; details: IA107 at 5 μM
Procedure: as §1

RIPK2 = RIPK2 (Homo sapiens, UniProt O43353); test: as above; details: IA107 at 5 μM
Procedure: as §1

STK32B (YANK2) = STK32B (YANK2) (Homo sapiens, UniProt Q9NY57); test: as above; details: IA107 at 5 μM
Procedure: as §1

STK33 = STK33 (Homo sapiens, UniProt Q9BYT3); test: as above; details: IA107 at 5 μM
Procedure: as §1

STK38 (NDR) = STK38 (NDR) (Homo sapiens, UniProt Q15208); test: as above; details: IA107 at 5 μM
Procedure: as §1

TGFBR1 (ALK5) = TGFBR1 (ALK5) (Homo sapiens, UniProt P36897); test: as above; details: IA107 at 5 μM
Procedure: as §1

TLK1 = TLK1 (Homo sapiens, UniProt Q9UKI8); test: as above; details: IA107 at 5 μM
Procedure: as §1

TNIK = TNIK (Homo sapiens, UniProt Q9UKE5); test: as above; details: IA107 at 5 μM
Procedure: as §1

TTK = TTK (Homo sapiens, UniProt P33981); test: as above; details: IA107 at 5 μM
Procedure: as §1

ULK2 = ULK2 (Homo sapiens, UniProt Q8IYT8); test: as above; details: IA107 at 5 μM
ULK2, sequence (Q8IYT8 whole entry): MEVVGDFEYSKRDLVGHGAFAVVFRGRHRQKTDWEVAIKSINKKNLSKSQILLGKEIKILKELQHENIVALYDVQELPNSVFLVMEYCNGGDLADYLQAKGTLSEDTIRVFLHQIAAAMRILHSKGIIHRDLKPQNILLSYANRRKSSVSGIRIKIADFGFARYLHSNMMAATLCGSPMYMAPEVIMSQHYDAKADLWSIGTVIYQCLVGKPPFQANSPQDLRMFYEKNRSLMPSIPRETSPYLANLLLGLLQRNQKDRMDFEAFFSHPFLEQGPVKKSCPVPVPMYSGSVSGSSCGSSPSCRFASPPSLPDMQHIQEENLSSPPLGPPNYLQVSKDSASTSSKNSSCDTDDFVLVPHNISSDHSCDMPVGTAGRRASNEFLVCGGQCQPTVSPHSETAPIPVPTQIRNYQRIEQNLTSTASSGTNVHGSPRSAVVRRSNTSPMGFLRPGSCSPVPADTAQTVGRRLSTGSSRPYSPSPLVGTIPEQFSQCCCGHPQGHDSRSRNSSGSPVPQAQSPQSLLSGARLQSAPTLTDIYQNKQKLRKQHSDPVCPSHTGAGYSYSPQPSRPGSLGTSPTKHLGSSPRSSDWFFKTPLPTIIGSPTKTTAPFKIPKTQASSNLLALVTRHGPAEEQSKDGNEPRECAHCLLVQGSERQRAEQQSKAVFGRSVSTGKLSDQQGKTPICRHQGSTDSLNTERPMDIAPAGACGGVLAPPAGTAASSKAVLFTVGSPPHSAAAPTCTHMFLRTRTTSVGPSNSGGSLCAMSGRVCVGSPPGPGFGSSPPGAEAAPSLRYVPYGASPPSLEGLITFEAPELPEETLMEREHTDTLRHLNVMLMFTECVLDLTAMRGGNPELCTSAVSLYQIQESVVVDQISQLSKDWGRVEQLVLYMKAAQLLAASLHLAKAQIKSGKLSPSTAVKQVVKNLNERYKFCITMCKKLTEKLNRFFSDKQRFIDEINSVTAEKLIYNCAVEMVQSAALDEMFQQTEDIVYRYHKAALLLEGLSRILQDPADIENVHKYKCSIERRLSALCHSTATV
Procedure: as §1

IRE1α = details: Fig. 1b; read-out: IC50 of reported IRE1α inhibitor; cited from earlier work

SMILES: Cc1c(CCC(=O)O)c2cc(Br)ccc2n1C(=O)c1ccccc1 [IA107]
- Kd (phosphorylated IRE1α): 152 nM
- IRE1β Kinase Displacement(%) (IRE1β (ERN2); 16700 μM as printed): 87.04% and 84.54%
- IC50 (IRE1β (ERN2); LanthaScreen Eu kinase binding assay, read-out: IRE1β (ERN2) kinase domain IC50): 1440 nM
- selectivity for IRE1α over IRE1β (IRE1β (ERN2); kinase binding IC50s): 2 fold
- inhibition at 5 µM (IRE1β (ERN2); kinase profiling, ERN2, LanthaScreen Binding, IA107 at 5 μM): 70%
- inhibition at 5 µM (GSG2 (Haspin)): 4%
- inhibition at 5 µM (ACVR1 (ALK2)): 2%
- inhibition at 5 µM (BMPR1B (ALK6)): 12%
- inhibition at 5 µM (BMPR2): -4%
- inhibition at 5 µM (BRSK2): 1%
- inhibition at 5 µM (CAMKK2 (CaMKK beta)): 4%
- inhibition at 5 µM (CASK): -14%
- inhibition at 5 µM (CDC7/DBF4): 8%
- inhibition at 5 µM (CDK8/cyclin C): 35%
- inhibition at 5 µM (DDR2): -1%
- inhibition at 5 µM (ICK): -2%
- inhibition at 5 µM (LIMK1): -16%
- inhibition at 5 µM (MAP3K11 (MLK3)): -3%
- inhibition at 5 µM (MAP3K14 (NIK)): 0%
- inhibition at 5 µM (MAP4K1 (HPK1)): -2%
- inhibition at 5 µM (MAPK15 (ERK7)): 17%
- inhibition at 5 µM (MYO3B (MYO3 beta)): -2%
- inhibition at 5 µM (RIPK2): 0%
- inhibition at 5 µM (STK32B (YANK2)): 2%
- inhibition at 5 µM (STK33): -4%
- inhibition at 5 µM (STK38 (NDR)): 6%
- inhibition at 5 µM (TGFBR1 (ALK5)): 54%
- inhibition at 5 µM (TLK1): -12%
- inhibition at 5 µM (TNIK): 8%
- inhibition at 5 µM (TTK): 6%
- inhibition at 5 µM (ULK2): -3%

SMILES: Cc1ccc2c(NS(=O)(=O)c3ccccc3Cl)cccc2c1Oc1ncccc1-c1ccnc(N[C@H]2CCCNC2)n1 [KIRA8]
- IC50 (IRE1α): 6 nM
